Source: PubChem BioAssay (NCI)
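Cultured in 96-well plates, cells were exposed to test compound for 48 hours across five concentrations. The concentration for 50% growth inhibition is given as GI50. TGI: total growth inhibition.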

Experiments:
Test in all cases: DTP human tumour cell line panel, 48 h
UACC-257 melanoma = system: UACC-257 melanoma
IGROV1 ovarian = system: IGROV1 ovarian
SF-268 CNS = system: SF-268 CNS
RPMI-8226 leukemia = system: RPMI-8226 leukemia
NCI-H226 lung = system: NCI-H226 lung
COLO 205 colon = system: COLO 205 colon
SK-MEL-5 melanoma = system: SK-MEL-5 melanoma
NCI-H522 lung = system: NCI-H522 lung
KM12 colon = system: KM12 colon
UO-31 renal = system: UO-31 renal

| Compound | TGI (UACC-257 melanoma) | TGI (IGROV1 ovarian) | TGI (SF-268 CNS) | TGI (RPMI-8226 leukemia) | TGI (NCI-H226 lung) | TGI (COLO 205 colon) | TGI (SK-MEL-5 melanoma) | TGI (NCI-H522 lung) | TGI (KM12 colon) | GI50 (UACC-257 melanoma) | GI50 (IGROV1 ovarian) | GI50 (SF-268 CNS) | GI50 (RPMI-8226 leukemia) | GI50 (UO-31 renal) | TGI (UO-31 renal) | GI50 (NCI-H226 lung) | GI50 (COLO 205 colon) | GI50 (SK-MEL-5 melanoma) | GI50 (NCI-H522 lung) | GI50 (KM12 colon) |
| --- | --- | --- | --- | --- | --- | --- | --- | --- | --- | --- | --- | --- | --- | --- | --- | --- | --- | --- | --- | --- |
| NC(Cc1cc(Br)c(O)c(Br)c1)C(=O)O (configuration not stated) | > 100 µM | > 100 µM | > 100 µM | > 100 µM | > 100 µM | > 100 µM | > 100 µM | > 100 µM | > 100 µM | – | – | – | – | – | – | – | – | – | – | – |
| CCC[CH2][Sn]([CH2]CCC)([O]C(=O)c1cc(OC)c(OC)c(OC)c1)[O]C(=O)c1cc(OC)c(OC)c(OC)c1 | 2.47 µM | 2.73 µM | 2.48 µM | 4.5 µM | 2.59 µM | 2.59 µM | 2.97 µM | 0.348 µM | 3.01 µM | 1.09 µM | 1.32 µM | 1.21 µM | 0.445 µM | 1.33 µM | 2.61 µM | 1.21 µM | 1.22 µM | 1.49 µM | 0.191 µM | 1.45 µM |
| COc1ccc(C2=C(Br)C(=O)OC2)cc1Cl | 59.5 µM | > 100 µM | 99.6 µM | 48.5 µM | 62.7 µM | > 30.9 µM | > 100 µM | > 100 µM | > 84.4 µM | 21 µM | 45.9 µM | 32.9 µM | 17.3 µM | 39.6 µM | > 100 µM | 25 µM | 0.832 µM | 29.1 µM | 37.8 µM | 23.6 µM |
| O=[n+]1cnn([O-])c2ccccc21 | 37.1 µM | 28.5 µM | > 100 µM | > 100 µM | > 100 µM | 40.7 µM | – | 45.2 µM | 40.4 µM | – | – | – | – | – | 94.4 µM | – | – | – | – | – |
| CCCCCCCCC(=O)CCCCCCCCC(=O)O | > 100 µM | 36.4 µM | > 100 µM | 51.2 µM | 63.6 µM | 59.8 µM | 29.1 µM | 85 µM | 32 µM | – | – | – | – | – | 84.7 µM | – | – | – | – | – |
| CC(=O)c1cc2c3c(c1)c1cc4c(cc1c(=O)n3CC2)OCO4 | > 100 µM | > 100 µM | – | > 100 µM | > 100 µM | > 100 µM | > 100 µM | 34 µM | > 100 µM | – | – | – | – | – | 38.6 µM | – | – | – | – | – |
| NC(=O)Cc1ccccc1Oc1nccc(-c2c(-c3ccc(F)cc3)ncn2C2CCNCC2)n1 | > 25 µM | > 25 µM | > 25 µM | > 25 µM | > 25 µM | > 25 µM | > 25 µM | > 25 µM | > 25 µM | > 25 µM | > 25 µM | > 25 µM | > 25 µM | > 25 µM | > 25 µM | > 25 µM | > 25 µM | > 25 µM | > 25 µM | > 25 µM |
| O=C1OCC2=C1C(c1ccccc1)c1cc3c(cc1N2CCO)CCC3 (configuration not stated) | > 25 µM | 0.774 µM | 1.51 µM | > 25 µM | > 25 µM | 0.331 µM | 5.41 µM | 0.119 µM | 0.922 µM | 0.0862 µM | 0.0799 µM | 0.0833 µM | 0.106 µM | 0.117 µM | > 20.1 µM | 1.02 µM | 0.0854 µM | 0.0762 µM | 0.0284 µM | 0.0793 µM |
| CC(C)[C@@H]1NC(=O)[C@]2(C)CSC(=N2)c2csc(n2)CNC(=O)C[C@@H](/C=C/CCS)OC1=O | 2.15 µM | 2.77 µM | > 100 µM | 6.62 µM | 7.69 µM | 0.709 µM | 0.197 µM | 3.75 µM | > 32.4 µM | 0.0537 µM | 0.119 µM | 0.181 µM | 0.563 µM | 0.605 µM | 6.5 µM | 0.403 µM | 0.228 µM | 0.0446 µM | 0.165 µM | 0.0526 µM |
| O=C(/C=C/c1ccccc1O)c1ccccc1 | 25.3 µM | 4.12 µM | 21.2 µM | 6.68 µM | 26.1 µM | 38 µM | 23.9 µM | 22 µM | 4.16 µM | 12.1 µM | 1.56 µM | 6.34 µM | 2.44 µM | 1.68 µM | 15.7 µM | 12.8 µM | 17.3 µM | 11.5 µM | 9.1 µM | 1.77 µM |
| COC(=O)c1c2c(c[n+]([O-])c1C)C(=O)C(NCc1ccccc1)=CC2=O | 0.734 µM | 1.49 µM | 3.94 µM | 3.79 µM | 2.84 µM | 0.984 µM | 0.322 µM | 1.57 µM | 3.03 µM | 0.257 µM | 0.368 µM | 0.998 µM | 0.996 µM | 1.25 µM | 2.58 µM | 1.23 µM | 0.312 µM | 0.175 µM | 0.31 µM | 0.608 µM |
| C[CH2][Sn]1([CH2]C)[O]C2C(O)OC(CO)C(O)C2[O]1 (configuration not stated) | 31.8 µM | > 100 µM | > 100 µM | 23.8 µM | 26.1 µM | > 100 µM | > 100 µM | 22.2 µM | > 100 µM | 14.4 µM | 38.7 µM | 39.4 µM | 7.16 µM | 68.7 µM | > 100 µM | 13.2 µM | 35.2 µM | 34.1 µM | 3.95 µM | 90.4 µM |
| Clc1ccc(N/N=C/c2ccccn2)nc1 | > 23.6 µM | > 100 µM | > 100 µM | 18.7 µM | > 100 µM | 18.6 µM | 2.59 µM | 37.4 µM | > 54.7 µM | 0.636 µM | 0.441 µM | 0.365 µM | 0.462 µM | 0.303 µM | 1.57 µM | 0.401 µM | 0.342 µM | 0.423 µM | 0.323 µM | 0.395 µM |
| Cc1ccccc1NC(=O)N/C(N)=N/c1nc2ccccc2s1 | > 100 µM | > 100 µM | > 100 µM | 2.46 µM | > 100 µM | 4.28 µM | 2.07 µM | > 100 µM | > 100 µM | > 100 µM | 0.0796 µM | 1.5 µM | 0.0402 µM | 1.3 µM | > 100 µM | 0.589 µM | 0.0514 µM | 0.065 µM | 0.0427 µM | 0.0399 µM |
